Laboratory results published in article PMC4783990, “Cloning and Characterization of a Flavonoid 3′-Hydroxylase Gene from Tea Plant (Camellia sinensis)” (International Journal of Molecular Sciences, 2016).
Where two headings read alike, the source gives them in different places.

Target: T1, CsF3′H (Camellia sinensis, UniProt A0A0S2LLA9)
T1 construct: microsomes of Saccharomyces cerevisiae WAT11, which co-expresses an Arabidopsis thaliana P450 reductase; ORF amplified with its own stop codon, no tag stated
T1 sequence (A0A0S2LLA9 entry or part of it): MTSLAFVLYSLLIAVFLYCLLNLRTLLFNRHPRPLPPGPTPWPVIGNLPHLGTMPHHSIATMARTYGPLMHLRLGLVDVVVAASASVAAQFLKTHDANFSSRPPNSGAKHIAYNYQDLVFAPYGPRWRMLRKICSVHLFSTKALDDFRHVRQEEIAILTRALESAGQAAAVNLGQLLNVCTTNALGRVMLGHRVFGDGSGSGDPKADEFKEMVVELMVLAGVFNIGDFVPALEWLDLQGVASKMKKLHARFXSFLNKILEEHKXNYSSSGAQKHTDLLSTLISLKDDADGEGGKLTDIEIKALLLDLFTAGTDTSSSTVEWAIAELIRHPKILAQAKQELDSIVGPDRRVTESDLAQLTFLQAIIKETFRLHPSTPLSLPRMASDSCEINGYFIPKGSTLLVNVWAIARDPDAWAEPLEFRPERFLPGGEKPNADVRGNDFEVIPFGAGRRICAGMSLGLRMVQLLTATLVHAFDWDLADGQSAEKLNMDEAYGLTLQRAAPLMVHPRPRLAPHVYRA
Assay: HPLC product formation with recombinant yeast microsomes
Format: biochemical
Conditions: 1.0 mM NADPH, 100 mM sodium phosphate pH 7.0, 30 °C, 30 min
From the text: HPLC product formation with recombinant yeast microsomes on CsF3′H

`O=c1c(O)c(-c2ccc(O)cc2)oc2cc(O)cc(O)c12` [Kaempferol] was tested, and the Km (read-out: Kaempferol) was 68.06 ± 0.43 µM.

For `O=C1c2c(O)cc(O)cc2OC(c2ccc(O)cc2)C1O` (racemic) [Dihydrokaempferol], the Km (racemic substrate, read-out: Dihydrokaempferol) was 143.6 ± 0.69 µM.

With `O=C1CC(c2ccc(O)cc2)Oc2cc(O)cc(O)c21` (racemic) [Naringenin] the Km (racemic substrate, read-out: Naringenin) was 17.1 ± 0.46 µM.
